According to patent US12053523B2, “Compositions comprising chemotherapeutic agents and checkpoint inhibitors and methods of use” (NORTH CAROLINA STATE UNIVERSITY, priority 2017, dated 2024):
“Also recorded” adds a separate entry of the source. Where a name gives a salt, the structure may show the parent alone.

Columns and labels:
[1] = GEM and aPDL1 release from PVA-TSPBA hydrogels; format: physicochemical; settings: 37° C.
Procedure: FIGS. 1A, 1B, 1C, 1D, 1E, and 1F show a schematic and characterization of in situ formed reactive oxygen species (ROS)-responsive PVA-TSPBA scaffold. […] Scale bar, 0.5 μm. Inset: a zoom-in image of the scaffold. Scale bar, 0.1 μm. […] Scale bar, 25 μm. […] FIGS. 1E and IF show cumulative release profiles of GEM (1e) and aPDL1 (1f) from hydrogels when incubated with PBS with or without H2O2 (1 mM).
The TSPBA can be oxidized and hydrolyzed when exposed to H2O2 in the TME, leading to the dissociation of the polymeric scaffold and the release of PVA and payloads. To verify the ROS-sensitive degradability of the hydrogels, samples were immersed in phosphate-buffered saline (PBS) containing […] H2O2 at 37° C. […] The release profiles of GEM and aPD-L1 were quantified using high-performance liquid chromatography (HPLC) and enzyme-linked immunosorbent assay (ELISA), respectively. […] The release pattern was further examined in vivo after the intratumor injection of the drug-loaded scaffolds in the B16F10 mouse model. […] These distinct release dynamics facilitated the delivery of GEM and aPD-L1 into the TME for the intended sequential effects.
Release studies were performed at 37° C. with constant agitation in PBS. […] The released GEM was analyzed by HPLC and the antibody release was determined by Rat IgG total ELISA kit (eBioscience).

4T1 cancer cells = test: Effects of GEM in 4T1 cells in vitro (PD-L1 by flow cytometry); format: cell-based, mouse; settings: GEM 0, 1, 2, 5, 10 μM for 48 hours, remaining live cells; hydrochloride
Procedure: The data are shown as mean±SD. Error bars are based on at least triplicate measurements. P value: *, P<0.05.
4T1 cells were reported to express low levels of PD-L1. […] For in vivo study, 4T1 were inoculated subcutaneously into the right flank of female BABL/c mice. After 7 days, the mice bearing 4T1 tumors were treated with GEM@Gel (200 μL, 10% w/w) (GEM: 5 mg/kg), aPD-L1@Gel (aPDL1: 50 μg per mouse) or GEM-aPD-L1@Gel (aPD-L1: 50 μg per mouse, GEM: 5 mg/kg).
The mouse melanoma cell line B16F10 and mouse mammary carcinoma cell line 4T1 were purchased from the American Type Culture Collection. B16F10-luc-GFP and 4T1-luc-GFP cells were gifts from Dr. Leaf Huang at the University of North Carolina at Chapel Hill. B16F10 cells were maintained in Dulbecco's Modified Eagle Medium (Gibco, Invitrogen) supplemented with 10% fetal bovine serum (Invitrogen, Carlsbad, CA), 100 U/mL penicillin (Invitrogen), and 100 […] (Invitrogen). 4T1 cells were maintained in RPMI-1640 Medium (Gibco, Invitrogen) supplemented with 10% fetal bovine serum (Invitrogen, Carlsbad, CA), 100 U/mL penicillin (Invitrogen), and 100 […] (Invitrogen). Master and working cell banks were generated immediately upon receipt. The third and fourth passages were used for the experiments. Cells were tested every three months to exclude the presence of mycoplasma. […]

B16F10 cancer cells = test: Treatment of B16F10 cancer cells in vitro with GEM (flow cytometry, immunofluorescence, western blot); format: cell-based, mouse
Procedure: FIGS. 7A and 7B show the effects of GEM to cancer cells in vitro.
Circulating type 1 T helper (Th1) cytokines were also measured before and after GEM@Gel implantation (FIG. 6g).
The mouse melanoma cell line B16F10 and mouse mammary carcinoma cell line 4T1 were purchased from the American Type Culture Collection. B16F10-luc-GFP and 4T1-luc-GFP cells were gifts from Dr. Leaf Huang at the University of North Carolina at Chapel Hill. B16F10 cells were maintained in Dulbecco's Modified Eagle Medium (Gibco, Invitrogen) supplemented with 10% fetal bovine serum (Invitrogen, Carlsbad, CA), 100 U/mL penicillin (Invitrogen), and 100 […] (Invitrogen). 4T1 cells were maintained in RPMI-1640 Medium (Gibco, Invitrogen) supplemented with 10% fetal bovine serum (Invitrogen, Carlsbad, CA), 100 U/mL penicillin (Invitrogen), and 100 […] (Invitrogen). Master and working cell banks were generated immediately upon receipt. The third and fourth passages were used for the experiments. Cells were tested every three months to exclude the presence of mycoplasma. Authentication of cells was not performed after receipt.

Nc1ccn([C@@H]2O[C@H](CO)[C@@H](O)C2(F)F)c(=O)n1 [GEM, Gemcitabine hydrochloride]
Release from the hydrogel in H2O2 solution compared to control PBS ([1]; H2O2 1 mM vs PBS): in a triggered manner | Release of GEM from the hydrogel ([1]; H2O2 solution (1 mM) in PBS, HPLC): great majority of GEM was released within one day | PD-L1 expression in 4T1 cancer cells (4T1 cancer cells): induced PD-L1 expression; also recorded: PD-L1 upregulation | PD-L1 on surviving B16F10 cells (B16F10 cancer cells; GEM 5 μM, within 24 hours): significant PD-L1 upregulation | Dose and time dependence of PD-L1 expression on B16F10 cancer cells (B16F10 cancer cells; flow cytometry, immunofluorescence, western blot): GEM-dose- and time-dependent | Cell death of B16F10 cancer cells (B16F10 cancer cells; in vitro): resulted in cell death | Expression of PD-L1 in surviving B16F10 cells (B16F10 cancer cells; in vitro): increased expression of PD-L1
